Here are results for 24 molecules from PubChem BioAssay (NCI).

Experiment in all cases: DTP human tumour cell line panel, 48 h
In experiment [1] the test system is OVCAR-3 ovarian.
In experiment [2] the test system is HCC-2998 colon.
Experiment [3] deals with U251 CNS.
The test system of experiment [4] is HCT-15 colon.
Experiment [5] deals with SF-295 CNS.
The subject of experiment [6] is SK-OV-3 ovarian.
Experiment [7] concerns SNB-19 CNS.
For experiment [8], the system named is NCI-H226 lung.
The test system of experiment [9] is HOP-92 NSCLC.
Experiment [10] has as its system SR leukemia.

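The compound was tested at five concentrations on cells cultured in 96-well plates, with a 48-hour exposure period. Abbreviation: GI50, concentration required for 50% inhibition of growth. Definition used: TGI = concentration required for complete inhibition of growth.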

Take `O=S(O)CCCCSSCCCCSSCCCCS(=O)O`: the TGI in experiment [1], in [2], in experiment [3], in [4], in [5] and in [6] was over 100 µM throughout. Also, the TGI in experiment [7] was over 100 µM.
For `CSc1nc(NC2OC(COC(C)=O)C(OC(C)=O)C(OC(C)=O)C2OC(C)=O)c2c(OC(C)=O)c(C)c(=O)oc2n1` (stereo not drawn), the TGI in [1], in experiment [2], in experiment [3], in experiment [4], in experiment [5] and in experiment [8] was over 100 µM each time. Further, the TGI in experiment [6], in experiment [7] and in [9] was over 100 µM throughout.
For `COc1cc2c(/C=C3/C(=O)Nc4cccc(Cl)c43)c(Cl)n(Cc3ccccc3)c2cc1C`, the GI50 was 8.84 µM in [1]; 3100 nM in [2]; 2.46 µM in [3]; 3.12 µM in [4]; 2110 nM in experiment [5]; 1.78 µM in [8]. Moreover, the GI50 in [6] was 7.24 µM; in experiment [7], 9.07 µM; in [9] it was 44900 nM. In addition, the total growth inhibition concentration (TGI) was 25.2 µM in experiment [1]; 8.99 µM in experiment [2]; 20.6 µM in [3]; 31.3 µM in experiment [4]; 21.2 µM in [5]; 11.1 µM in [8]. The total growth inhibition concentration (TGI) was over 74.8 µM in experiment [6], over 100 µM in experiment [7] and over 100 µM in experiment [9].
Consider `CCCCNC(=O)NS(=O)(=O)c1ccc(N2N=C(c3ccc(C)cc3C)CC2c2ccc(N(C)C)cc2)cc1` (stereo not drawn), for which the GI50 in experiment [1] was 2.5 µM; in experiment [2], 2250 nM; in experiment [3] it was 3.59 µM; in [4], 3.09 µM; in experiment [8] it was 4.54 µM; in [6], 8.16 µM. The GI50 in experiment [7] was 4.59 µM; in experiment [9], 2390 nM. Also, the concentration for total growth inhibition (TGI) in [1] was 5.72 µM; in experiment [2] it was 5.1 µM; in experiment [3], 27.6 µM; in experiment [4] it was over 100 µM; in experiment [8] it was 21.8 µM; in experiment [6], over 100 µM. Further, the total growth inhibition concentration (TGI) was over 100 µM in [7] and 31.4 µM in [9].
For the molecule `CCOC(=O)c1c(C)n(Cc2ccc(OC)cc2)c2c1cc(O)c1[nH]c3c(c12)CCCC3`, the GI50 in experiment [1] is 3.73 µM; in [2], 2390 nM; in experiment [3], 2.31 µM; in experiment [4] it was 3.44 µM; in experiment [5], 13700 nM; in [8], 15.5 µM. In addition, the GI50 in experiment [6] is 9.47 µM; in experiment [7], 4.84 µM; in experiment [9] it was 2500 nM. The total growth inhibition concentration (TGI) came to 18.6 µM in experiment [1]; 14.5 µM in experiment [2]; 5.89 µM in experiment [3]; 13.2 µM in experiment [4]; 42.8 µM in [5]; 32.9 µM in experiment [8]. For the same molecule, the concentration for total growth inhibition (TGI) in experiment [6] was found to be 51.3 µM; in experiment [7], 65.2 µM; in [9], 55.4 µM.
`CC(=O)NC(CCCN)C(=O)NCc1ccccc1` (stereo not drawn): the TGI in [1], in [2], in experiment [3], in [4], in experiment [5] and in experiment [8] was over 100 µM in each case. The TGI in experiment [6], in experiment [7] and in [9] was over 100 µM throughout.
For `Nc1c(-c2ccc(Br)cc2)[n+]([O-])c2ccccc2[n+]1[O-]`, the total growth inhibition concentration (TGI) in [1], in experiment [3], in experiment [4], in experiment [5], in [8] and in experiment [6] was over 100 µM each time. For the same molecule, the TGI in experiment [7] and in experiment [9] was over 100 µM throughout.
In the case of `CC(C)CC(N)C(=O)O` (stereo not drawn), the TGI in experiment [1], in experiment [3], in experiment [4], in [5], in [8] and in experiment [6] was over 100 µM each time. The TGI in experiment [7] and in [9] was over 100 µM throughout.
Consider `CCCCC/C=C/C/C=C/CCCCCCCC1=NC(C)(C)CN1C(C)C`, for which the GI50 was 1.49 µM in experiment [1]; 1670 nM in experiment [2]; 1.53 µM in experiment [3]; 1.63 µM in [4]; 1490 nM in experiment [5]; 3.07 µM in [6]. Moreover, the GI50 in experiment [7] is 1.59 µM; in experiment [9], 1310 nM. Further, the concentration for total growth inhibition (TGI) was 2.81 µM in experiment [1]; 3.06 µM in [2]; 2.87 µM in experiment [3]; 3.17 µM in experiment [4]; 2.83 µM in experiment [5]; 12.6 µM in experiment [6]. Further, the results for the TGI in experiment [7] and in [9] were 3 µM and 3.37 µM, respectively.
For `Cc1ccc(C(=O)/C=C/c2ccccc2O)c(C)c1`, the TGI in experiment [1], in experiment [2], in experiment [3], in experiment [4], in experiment [5] and in [8] was over 100 µM throughout. Besides, the TGI in experiment [6], in experiment [7] and in [9] was over 100 µM each time.
For the molecule `CCCCn1c(-c2ccc(C(=O)O/N=C(\N)c3ccc(OC)cc3)cc2)nc(-c2ccccc2)c1-c1ccccc1`, the GI50 in experiment [5] was 1530 nM; in experiment [6], 3.76 µM; in experiment [7], 1.91 µM; in experiment [9], 816 nM. Further, the TGI in [5] was 2.97 µM; in experiment [6] it was over 100 µM; in experiment [7] it was 5.01 µM; in experiment [9] it was 2.41 µM.
As for `CCc1cccc(C)c1NC(C)=O`, the TGI in experiment [1], in [2], in experiment [3], in experiment [4], in experiment [5] and in experiment [8] was over 100 µM in each case. In addition, the TGI in experiment [6] is over 100 µM.
As for `Cc1ccc(N=NC(C(=O)c2ccccc2)C(=O)c2ccccc2)cc1`, the TGI is over 100 µM in experiment [1]; over 100 µM in experiment [2]; over 100 µM in [3]; 43.6 µM in experiment [4]; over 100 µM in [5]; 40.6 µM in experiment [8]. Also, the concentration for total growth inhibition (TGI) was 96 µM in experiment [6], 86.4 µM in [7] and 41.5 µM in experiment [9].
In the case of `COc1cc2c3c(n(CCCCl)c(=O)c2cc1OC)-c1ccccc1C3=O`, the GI50 in experiment [1] was 10.6 µM; in experiment [2], over 100000 nM; in [3], 11.9 µM; in experiment [4], over 100 µM; in [5] it was 845 nM; in experiment [6], over 100 µM. Also, the GI50 in experiment [7] is over 100 µM; in experiment [9], 78800 nM. Also, the TGI in experiment [1] was 54.8 µM; in experiment [2], over 100 µM; in [3], over 100 µM; in experiment [4] it was over 100 µM; in [5], 13.3 µM; in [6], over 100 µM. The TGI in experiment [7] and in experiment [9] was over 100 µM each time.
On to `CC(=O)SCCC1c2[nH]c3ccccc3c2CCN1O` (stereo not drawn), for which the TGI in experiment [1], in [2], in [3], in [4], in [5] and in experiment [6] was over 100 µM each time. In addition, the TGI in experiment [7] and in [9] was over 100 µM in each case.
Turning to `COc1cccc(N=Cc2c3ccccc3c(=O)n3c2oc2ccccc23)c1`, the GI50 is 4.44 µM in [1]; 6810 nM in experiment [2]; 7.67 µM in [3]; 14.4 µM in [4]; 4530 nM in [5]; 73.1 µM in [6]. The GI50 in experiment [7] was 52.2 µM; in [9] it was 1680 nM. For the same molecule, the TGI in [1] is 45.3 µM; in experiment [2], 44.9 µM; in experiment [3], over 100 µM; in experiment [4] it was over 100 µM; in [5], 30.1 µM; in experiment [6], over 100 µM. Further, the results for the concentration for total growth inhibition (TGI) in [7] and in experiment [9] were over 100 µM and 30.7 µM, respectively.
Regarding `CCN(CC)C(=O)C/C(C)=N/NC(=O)c1ccncc1`, the TGI in experiment [1], in experiment [2], in experiment [3], in experiment [5], in [8] and in experiment [6] was over 100 µM each time. For the same molecule, the TGI in experiment [9] is over 100 µM.
For `C[C@]12CC[C@@H]3c4ccc(Oc5nc(N6CC6)nc(N6CC6)n5)cc4CC[C@H]3[C@@H]1CCC2=O`, the concentration for 50% growth inhibition (GI50) in experiment [10] was 351 nM; in experiment [1], 3.86 µM; in [3], 2 µM; in experiment [4], 2.85 µM; in experiment [5], 1170 nM; in experiment [8], 3.23 µM. The GI50 in [6] was 3.31 µM; in experiment [7], 7.25 µM. For the same molecule, the concentration for total growth inhibition (TGI) in experiment [10] came to 11.4 µM; in experiment [1], 15.3 µM; in experiment [3] it was 11.7 µM; in experiment [4] it was 18.6 µM; in experiment [5] it was 15.3 µM; in [8], 30.8 µM. Also, the total growth inhibition concentration (TGI) in experiment [6] was 13.9 µM; in [7] it was 21.5 µM.
`COc1ccc(-n2c(SCc3cc(OC)c(OC)c(OC)c3)nc3ccc(C)cc3c2=O)cc1`: the GI50 in experiment [1] is 4.87 µM; in [2], over 100000 nM; in [3] it was 7.87 µM; in experiment [4] it was 5.24 µM; in experiment [5], 4360 nM; in experiment [8], over 100 µM. Besides, the GI50 in experiment [6] was 9.74 µM; in [7] it was over 100 µM; in [9], 1750 nM. Further, the TGI in [1], in experiment [2], in experiment [3], in experiment [4], in experiment [5] and in [8] was over 100 µM throughout. Also, the TGI in experiment [6], in experiment [7] and in experiment [9] was over 100 µM in each case.
On to `COc1cc(C(=O)O[C@H](C(N)=O)[C@]2(C)CO2)c2ccccc2c1`, for which the GI50 was 22.7 µM in experiment [1]; 18.6 µM in experiment [3]; 23.8 µM in experiment [4]; 20400 nM in experiment [5]; 20.1 µM in experiment [8]; 14.3 µM in experiment [6]. Also, the results for the GI50 in experiment [7] and in experiment [9] were 15.8 µM and 20300 nM, respectively. For the same molecule, the TGI in experiment [1] stood at 45.2 µM; in experiment [3], 35.4 µM; in experiment [4], 70.6 µM; in experiment [5] it was 37.9 µM; in experiment [8], 38.4 µM; in experiment [6] it was 28 µM. Moreover, the TGI in experiment [7] was found to be 30.3 µM; in experiment [9], 50.6 µM.
In the case of `O=C(/C=C/c1ccccc1Cl)c1ccccc1Cl`, the TGI is 33.9 µM in experiment [1]; 39.1 µM in [2]; 30.8 µM in [3]; 28 µM in experiment [4]; 51.2 µM in [5]; over 100 µM in [8]. Besides, the total growth inhibition concentration (TGI) in experiment [6] was over 100 µM; in [7], 32.8 µM; in experiment [9], 77.2 µM.
Take `CC(C)(C)C1=CC(=CC=C2C=CN(CCCCCCCCCCCO)C=C2)C=C(C(C)(C)C)C1=O`: the TGI in [1] is 2.87 µM; in experiment [2], 2.27 µM; in experiment [3], 2.68 µM; in experiment [4] it was over 100 µM; in experiment [5] it was 2.95 µM; in experiment [6] it was 5.81 µM. The TGI in experiment [7] came out at 3.15 µM; in [9] it was 6.16 µM.
Take `N#CCCN(CCC#N)c1ccc(C(=O)NN)cc1`: the TGI in experiment [1], in [2], in experiment [3], in experiment [4], in experiment [5] and in experiment [8] was over 100 µM each time. The TGI in experiment [6], in [7] and in experiment [9] was over 100 µM each time.
For `COc1cc([N+](=O)[O-])ccc1NC(=O)C(F)(F)F`, the TGI in experiment [10], in experiment [1], in experiment [3], in experiment [4], in [5] and in [8] was over 100 µM in each case. Moreover, the TGI in experiment [6] and in experiment [7] was over 100 µM each time.

As a reminder, the TGI is the concentration at which net growth stops. Lower therefore signals greater sensitivity of the cells. As usually defined, the GI50 is the concentration that inhibits growth by half.
